Data as given in US10111900B2, “β-glucan methods and compositions that affect the tumor microenvironment” (Biothera, Inc., priority 2014, dated 2018).

Key:
Assay type in all cases: cell-based, human
M2 macrophages = assay: Flow cytometry of M1/M2 markers on M2 macrophages derived from β-glucan-treated whole blood; settings: for expression of CD163: M2 macrophages, vs vehicle
Description: CD14^+ monocytes from human whole blood were enriched using Ficoll gradient and magnetic bead separation. Enriched monocytes (5×10^5 cells per mL) were then cultured in either M1-polarizing (XVivo 10 media (Lonza Group) supplemented with 5% autologous serum and 100 ng/mL recombinant human granulocyte macrophage colony-stimulating factor (rhGM-CSF) (R&D Systems) or M2-polarizing (XVivo 10 media supplemented with 10% autologous serum and 50 ng/mL recombinant human macrophage colony-stimulating factor (rhM-CSF) (R&D Systems) conditions for 6 days. In experiments performed to evaluate the effect of β-glucan, whole blood was first incubated with vehicle (sodium citrate buffer) or 25 μg/mL soluble β-glucan for 2 hours at 37° C. and then the monocytes were isolated and differentiated. Morphology was checked before macrophages were harvested for phenotypic analysis. Culture medium of the day 6 macrophage culture (MCM) was collected, spun down to remove contaminated cell pellet and then frozen down for subsequent cytokine analysis by ELISA or used to setup a co-culture with CD3 & CD28-stimulated CD4 T cells (MCM-CD4 T) for evaluation of either surface markers or CD4 T cell proliferation. The macrophages were used to setup a co-culture with CD3 & CD28- or CD3 only-stimulated CD4 T cells (Mac-CD4 T) on day 6 for evaluation of either surface marker modulation or effect on CD4 T cell proliferation. For Mac-CD4 T cell proliferation study, M1 or M2 macrophages were cultured with CD3 & CD28- or CD3 only-stimulated, CFSE-labeled, autologous CD4 T cells at a 1:10 ratio. T cell proliferation was measured at the end of the experiment (day 9-day 11) by flow cytometry, and results are graphically shown as CFSE-dilution peaks. The assessment of CD3-only stimulated T cells was always done on day 11. Quantitative results were reported as the Division Index (the average number of cell divisions a population underwent) calculated for each of the triplicate wells in each of the culture conditions. Culture supernatants of Mac-CD4 T cell co-cultures were collected for subsequent cytokine analysis.
M1 and M2 macrophages from vehicle- or […] whole blood were prepared as described above. […] In addition, surface expression of CD86 was enhanced as well as both protein and mRNA levels of PD-L1 (FIG. 2B).
Expression of a panel of markers was evaluated by flow cytometry for vehicle- and β-glucan-treated, high binder-derived M1 and M2 macrophages (CD163 was evaluated twice).
CD163 and CD86 were evaluated by flow cytometry for vehicle- and β-glucan-treated, low binder-derived M1 and M2 macrophages.

[1] = test system: M2 macrophages cultured in TCM; assay: Flow cytometry of markers on M2 macrophages cultured in tumor-conditioned medium (TCM)
Description: Phenotypic and functional evaluation of β-glucan-treated M2a and β-glucan-treated M2 macrophages in the presence of immunosuppressive cytokines was carried out. M2 or M2a macrophages were prepared as described above. On day 3, tumor-conditioned medium (TCM) was added M2 macrophage cultures to account for 70% of the volume of the culture and then evaluated for CD163 expression and functional activity on day 6. […] M2a macrophages were cultured in IL-4 as described above.
The β-glucan-treated M2a macrophages cultured in IL-4 and M2 macrophages cultured in TCM were first evaluated for CD163 and CD86 expression. CD163 and CD86 were evaluated by flow cytometry and median MFI was calculated for isotype control staining and surface antigen staining and the results are shown in Table 5.
Monocytes or M2 macrophages were prepared as described above. On day 3, TCM was added to account for 70% of the volume of the culture and then evaluated for PD-L1 expression with TCM and then again when co-cultured with CD4 T cells.

CD4 and CD8 T cells = assay: T cell proliferation and activation of PBMCs in plasma from β-glucan-treated whole blood
Description: To obtain plasma, whole blood was treated for 6 hours with 25 μg/mL β-glucan or vehicle, spun down and the plasma removed. 50,000 autologous CFSE-labeled PBMCs were cultured in the treated plasma for 3 days in the presence of 50,000 T cell activating CD3/28 beads (DYNABEADS Human T-Activator CD3/CD28 for T Cell Expansion and Activation). At the end of the culture, PBMCs were stained with CD4 and CD8 and T cell proliferation was measured by CFSE dilution.
Next, to show the effect of soluble β-glucan on CD4 and CD8 cell activation, the T cell proliferation assay described above was again carried out. At day 3, however, the cells were stained for markers of activation including Granzyme B production and CD25 upregulation.

[2] = β-glucan-treated M2 macrophages vs vehicle

In the case of “β(1,6)-[poly-(1,3)-D-glucopyranosyl]-poly-β(1,3)-D-glucopyranose [β-glucan]”, the “expression of CD163” value (M2 macrophages; high binders) was “lower expression”, the “expression of CD163” value (M2 macrophages; low binders) was “remained the same” and the “mean fluorescence intensity (MFI) of CD163” value (M2 macrophages; [2]) was “downmodulated”. For the same substance, the “protein and mRNA levels of PD-L1” value (M2 macrophages; [2]) was “enhanced”, the “surface expression of CD86” value (M2 macrophages; [2]) was “enhanced” and the “surface expression of PD-L1” value ([1]; M2 macrophages cultured in the TCM) was “higher surface expression”. For the same substance, the HLA-DR expression ([1]; M2 macrophages in TCM (data not shown)) was “higher HLA-DR expression”, the “expression of PD-L1” value ([1]; M2 macrophages in TCM co-cultured with CD4 T cells) was “increased expression” and the CD163 expression ([1]; β-glucan-treated monocytes cultured in TCM) was “marked down-regulation”. For the same substance, the “CD4 and CD8 proliferation” value (CD4 and CD8 T cells; plasma from whole blood treated 6 hours with 25 μg/mL β-glucan, vs vehicle, CD3/28 beads, 3 days) was “significant enhancement” and the “CD4 and CD8 cell activation (Granzyme B production, CD25 upregulation)” value (CD4 and CD8 T cells; β-glucan-treated plasma, day 3) was “enhances”.
